Reference: patent US20130197085A1, “AGENT AND METHOD FOR STABILIZING MEMBRANE PROTEIN” (priority 2007, published 2013)

Key:
wild-type BSEP [1] = target: T1, wild-type BSEP (Homo sapiens, UniProt O95342, L339V); experiment: Transcellular transport assay of [^3H] TC across MDCKII monolayer; format: cell-based; conditions: other carboxylic acids, 1 mM, 24 hours; FIG. 10
T1 construct: expressed in transfected cells; host or cells: MDCKII cells infected with recombinant adenovirus
Experimental: MDCKII cells were dispersed on a Transwell membrane insert (pore size: […]; Falcon) of a 24-well plate, resulting in a density of 1.5×10^5 cells/insert. Two days after the culture, the confluent cells were infected with recombinant adenoviruses having the cDNAs of wild-type, E297G and D482G BSEPs, and GFP, at 50 MOI. […] After completion of the treatment for 24 hours, a transcellular transport assay was carried out (see Mita et al., Am J Physiol Gastrointest Liver Physiol 290: G550-G556, 2006).
The apparent efflux clearance across the apical membrane (PSapical) was calculated by dividing a steady rate of the transcellular transport of [^3H] TC for 2 hours by the intracellular concentration of the [^3H] TC at the termination of the experiment (2 hours later).

wild-type BSEP [2] = target: T1, wild-type BSEP; experiment: Cell surface biotinylation method, expression on the surface of MDCKII cells; format: cell-based; conditions: 1 mM, 24 hours, FIG. 9 cell surface fraction
Experimental: MDCKII cells were dispersed on a 6-well plate, resulting in a density of 2.5×10^5 cells/well. After completion of the culture for 24 hours, the confluent cells were infected with recombinant adenoviruses having the cDNAs of wild-type, E297G and D482G BSEPs, and GFP, at 200 MOI. After completion of the infection, the cells were cultured for 24 hours. […] After completion of the treatment for 24 hours, the cells were biotinylated (see Hayashi et al., Hepatology, 41: 916-924, 2005).

T1 sequence (O95342 whole entry L339V): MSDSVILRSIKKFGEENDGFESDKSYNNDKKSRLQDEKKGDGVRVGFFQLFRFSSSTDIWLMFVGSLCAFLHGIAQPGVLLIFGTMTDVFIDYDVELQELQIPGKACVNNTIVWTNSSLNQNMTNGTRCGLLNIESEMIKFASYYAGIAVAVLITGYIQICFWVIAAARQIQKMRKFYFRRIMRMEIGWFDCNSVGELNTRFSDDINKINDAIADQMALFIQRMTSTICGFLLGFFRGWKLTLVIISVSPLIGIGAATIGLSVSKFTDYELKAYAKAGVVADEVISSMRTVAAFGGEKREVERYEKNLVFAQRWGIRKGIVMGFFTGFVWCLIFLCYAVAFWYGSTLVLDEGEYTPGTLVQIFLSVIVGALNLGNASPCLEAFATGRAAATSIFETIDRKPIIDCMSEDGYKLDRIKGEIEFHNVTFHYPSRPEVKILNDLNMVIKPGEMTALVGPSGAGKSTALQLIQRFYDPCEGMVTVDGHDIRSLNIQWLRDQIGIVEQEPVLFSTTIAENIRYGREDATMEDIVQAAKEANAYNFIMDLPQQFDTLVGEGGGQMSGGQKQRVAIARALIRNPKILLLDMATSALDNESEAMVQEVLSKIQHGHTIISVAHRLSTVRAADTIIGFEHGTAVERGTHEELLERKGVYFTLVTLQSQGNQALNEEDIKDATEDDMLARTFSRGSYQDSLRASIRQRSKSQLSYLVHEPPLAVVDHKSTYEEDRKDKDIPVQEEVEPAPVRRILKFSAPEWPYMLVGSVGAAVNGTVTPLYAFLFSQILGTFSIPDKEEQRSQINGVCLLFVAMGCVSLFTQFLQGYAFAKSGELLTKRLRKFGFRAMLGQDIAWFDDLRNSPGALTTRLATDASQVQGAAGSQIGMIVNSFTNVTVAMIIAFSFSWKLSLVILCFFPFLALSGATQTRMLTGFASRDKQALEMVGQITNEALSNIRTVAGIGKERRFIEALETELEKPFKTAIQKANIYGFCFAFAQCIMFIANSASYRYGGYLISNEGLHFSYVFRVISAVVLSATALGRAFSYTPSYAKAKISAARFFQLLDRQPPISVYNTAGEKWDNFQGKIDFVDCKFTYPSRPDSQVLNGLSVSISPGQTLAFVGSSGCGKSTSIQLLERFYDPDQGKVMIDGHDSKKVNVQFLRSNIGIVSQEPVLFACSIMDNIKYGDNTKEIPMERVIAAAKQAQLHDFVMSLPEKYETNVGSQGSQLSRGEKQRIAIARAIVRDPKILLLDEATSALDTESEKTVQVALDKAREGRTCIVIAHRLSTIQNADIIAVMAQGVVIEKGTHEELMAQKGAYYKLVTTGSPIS

| SMILES | efflux of [^3H] TC from the base side to the apical side (in words) (wild-type BSEP [1]) | expression level of wild-type BSEP (wild-type BSEP [2]) |
| --- | --- | --- |
| CCCC(=O)O [butanoic acid] | increased | – |
| CCCCCCCCCC(=O)O [decanoic acid] | increased | – |
| CCCCCCCC(=O)O [octanoic acid] | – | an increase in the expression level was observed |
| CCC(=O)O [propionic acid] | increased | – |
